Drawing on article PMC5085761 (International Journal of Molecular Sciences, 2016), this text covers IC50 for 1 compound.

Usually IC50 stands for the concentration needed to halve the response being measured.

In one experiment the target is T1, human P-gp (Homo sapiens, UniProt P08183).
T1 construct: purchased GenoMembrane Co., Ltd. (Kanagawa, Japan); host or cells: Sf9
The experiment can be described thus: Inhibition of tracer uptake in P-gp-expressing vesicles. It is filed as in vitro ADME. The note with it: tracer [3H]digoxin 1 µM. Here is the method: For ABC transporters, experimental kits containing Sf9-derived vesicles with high expression levels of human P-gp, MRP4, BCRP, and each ABC transporter (including buffer, ATP/AMP solution, and glutathione) were purchased from GenoMembrane Co., Ltd. (Kanagawa, Japan).
Vesicular transport assays were carried out according to the manufacturer’s protocol. […] The reaction was started by suspending 50 μg of vesicles (10 μL) in 40 μL of the reaction buffer. After incubation for an appropriate period of time, the reaction was stopped by the addition of ice-cold stop buffer (40 mM MOPS-Tris and 70 mM KCl; pH 7.0), after which the solution was filtered through a 0.45 μm HA filter (Millipore Corp., Billerica, MA, USA) using suction, and was washed twice in 5 mL of ice-cold stop buffer. The radioactivity of the filter was measured with a Tri-Carb 2910TR liquid scintillation counter (PerkinElmer) using Ultima Gold (PerkinElmer). The amount of tracer uptake was normalized to the membrane protein amount described in the product information sheets.

For a further experiment, the target named is T2, OATP1B1 (Homo sapiens, UniProt Q9Y6L6).
T2 construct: host or cells: HEK293
T2 sequence (Q9Y6L6 1-691): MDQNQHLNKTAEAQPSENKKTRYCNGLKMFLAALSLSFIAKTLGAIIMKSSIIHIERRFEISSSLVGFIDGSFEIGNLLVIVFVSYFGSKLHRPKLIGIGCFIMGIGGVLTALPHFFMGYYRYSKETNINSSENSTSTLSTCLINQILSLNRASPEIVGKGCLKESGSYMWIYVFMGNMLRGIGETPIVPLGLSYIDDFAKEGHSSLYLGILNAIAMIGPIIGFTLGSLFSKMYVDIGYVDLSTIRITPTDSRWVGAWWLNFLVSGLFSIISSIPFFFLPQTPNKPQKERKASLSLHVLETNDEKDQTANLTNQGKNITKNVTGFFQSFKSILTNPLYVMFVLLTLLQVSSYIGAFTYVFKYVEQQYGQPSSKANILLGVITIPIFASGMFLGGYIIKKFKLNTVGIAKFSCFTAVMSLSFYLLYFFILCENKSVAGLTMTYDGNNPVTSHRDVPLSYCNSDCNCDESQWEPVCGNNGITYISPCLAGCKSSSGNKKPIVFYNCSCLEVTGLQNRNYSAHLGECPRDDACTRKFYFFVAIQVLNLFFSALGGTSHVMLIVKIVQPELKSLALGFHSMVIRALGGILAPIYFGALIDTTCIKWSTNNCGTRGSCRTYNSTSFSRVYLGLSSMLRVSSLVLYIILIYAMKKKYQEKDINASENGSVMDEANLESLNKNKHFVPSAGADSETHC
Put plainly: Inhibition of tracer uptake in OATP1B1-expressing cells. It is filed as in vitro ADME. The note with it: OATP1B1, tracer [3H]E2G 0.1 µM. On the procedure:
For the SLC transporter experiments, Mock Flp-in-293 cells (Flp/mock), OAT1-expressing Flp-in-293 cells (Flp/OAT1), mock HEK293 cells (HEK/mock), and OATP1B3-expressing HEK293 cells (HEK/OATP1B3) were obtained from Kanazawa University (Ishikawa, Japan). Briefly, Flp-in-293 and HEK293 cells were transfected with the appropriate plasmid DNA and selected using antibiotics (hygromycin or G-418). All cell lines were cultured in DMEM (Life Technologies Japan) supplemented with 10% (v/v) fetal bovine serum (American Type Culture Collection) and antibiotics (100 U/mL penicillin and 100 μg/mL streptomycin (Life Technologies Japan) for mock cells, 0.2 mg/mL hygromycin for Flp/OAT1 cells, and 1.2 mg/mL G-418 (Roche Diagnostics K.K., Tokyo, Japan) for HEK/OATP1B3 cells) at 37 °C under an atmosphere containing 5% CO2. […]
The experiments were performed as described previously, with minor modifications. […] The cells were lysed in 0.3 mL of 0.1N NaOH at room temperature, after which the radioactivity of each aliquot was measured as described above. The protein concentration of the cell lysate was determined with a VersaMax microplate reader (Molecular Devices Japan K.K., Osaka, Japan) or SpectraMax i3x (Molecular Devices Japan K.K.; only for OATP1B1) using a BCA Protein Assay Kit (Thermo Fisher Scientific, Kanagawa, Japan). Tracer uptake was expressed as pmol/mg protein. […]

T1 sequence (P08183 whole entry): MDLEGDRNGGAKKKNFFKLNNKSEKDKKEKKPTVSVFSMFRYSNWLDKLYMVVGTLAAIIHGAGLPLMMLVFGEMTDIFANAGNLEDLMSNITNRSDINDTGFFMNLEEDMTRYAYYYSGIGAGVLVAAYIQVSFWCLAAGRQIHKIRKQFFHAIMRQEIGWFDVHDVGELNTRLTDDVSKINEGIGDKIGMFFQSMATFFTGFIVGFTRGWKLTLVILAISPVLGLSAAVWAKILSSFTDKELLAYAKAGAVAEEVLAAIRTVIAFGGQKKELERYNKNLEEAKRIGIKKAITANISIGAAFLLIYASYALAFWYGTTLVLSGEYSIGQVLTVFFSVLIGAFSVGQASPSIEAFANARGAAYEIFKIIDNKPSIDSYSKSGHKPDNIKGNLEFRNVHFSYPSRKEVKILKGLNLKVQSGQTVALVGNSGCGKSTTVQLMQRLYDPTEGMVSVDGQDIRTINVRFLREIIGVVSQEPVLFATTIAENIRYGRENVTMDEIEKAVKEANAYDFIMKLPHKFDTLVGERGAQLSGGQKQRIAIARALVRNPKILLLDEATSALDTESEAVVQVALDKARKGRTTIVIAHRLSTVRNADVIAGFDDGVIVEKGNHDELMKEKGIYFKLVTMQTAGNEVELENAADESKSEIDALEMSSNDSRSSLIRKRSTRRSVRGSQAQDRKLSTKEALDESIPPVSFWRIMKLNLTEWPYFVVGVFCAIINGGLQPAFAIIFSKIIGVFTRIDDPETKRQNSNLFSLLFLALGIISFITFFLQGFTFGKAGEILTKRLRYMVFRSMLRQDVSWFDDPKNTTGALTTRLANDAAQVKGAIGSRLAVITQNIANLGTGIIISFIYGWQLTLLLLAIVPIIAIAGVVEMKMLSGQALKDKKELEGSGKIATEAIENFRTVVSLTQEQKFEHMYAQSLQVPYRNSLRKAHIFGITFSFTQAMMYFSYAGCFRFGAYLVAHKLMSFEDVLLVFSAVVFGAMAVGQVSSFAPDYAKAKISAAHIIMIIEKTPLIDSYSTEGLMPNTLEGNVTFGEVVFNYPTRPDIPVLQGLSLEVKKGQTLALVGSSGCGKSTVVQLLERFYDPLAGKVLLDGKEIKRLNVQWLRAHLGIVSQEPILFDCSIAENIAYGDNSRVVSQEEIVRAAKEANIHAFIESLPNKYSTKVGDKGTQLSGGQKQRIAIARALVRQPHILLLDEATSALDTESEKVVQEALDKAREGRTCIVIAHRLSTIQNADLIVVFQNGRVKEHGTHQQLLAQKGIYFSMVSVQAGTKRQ

For the compound `N[C@]1(C(=O)O)C[C@@H](F)C1` [fluciclovine], the IC50 was determined as 2.95 ± 2.56 mM against human P-gp and 5.41 ± 2.49 mM against OATP1B1.
